Data as given in patent US12644133B2, “Methods and compositions to increase somatic cell nuclear transfer (SCNT) efficiency by removing histone H3-lysine trimethylation” (The Children's Medical Center Corporation, priority 2014, dated 2026).

Key:
[1] = tested on: reprogramming resistant regions (RRRs); experiment: RNA-seq analysis of 2-cell SCNT embryos; assay type: cell-based, mouse
Protocol: The embryos were directly lysed and used for cDNA synthesis using SMARTer Ultra Low Input RNA cDNA preparation kit (Clontech). After amplification, the cDNA samples were fragmented using Covaris sonicator (Covaris). Sequencing libraries were made with the fragmented DNA using NEBNext Ultra DNA Library Prep Kit for Illumina according to manufacturer's instruction (New England Biolabs). Single end 50 bp sequencing was performed on a HiSeq 2500 sequencer (Illumina). Sequencing reads were mapped to the mouse genome (mm9) with NovoalignV3.02.00. All programs were performed with default settings (unless otherwise specified). Uniquely mapped reads (about 70% of total reads) were subsequently assembled into transcripts guided by the reference annotation (UCSC gene models) with Cufflinks v2.0.2. Expression level of each gene was quantified with normalized FPKM (fragments per kilobase of exon per million mapped fragments). […] Statistical analyses were implemented with R (world wide web at www.r-project.org/). Independent 2-group Wilcoxon rank sum test were used to compare distributions using the wilcox.test function in R. Pearson's r coefficient was calculated using the cor function with default parameters. The hierarchical clustering analysis of the global gene expression pattern in different samples was carried out using hearmap.2 function (gplots package) in R.
A sliding window (size 100 kb, step size 20 kb) was used to assess the genome-wide expression level of 1-cell and 2-cell embryos. For each window, the expression level was quantified with normalized RPM (reads per millions of uniquely mapped reads). […] These activated regions were classed into three groups based on their expression differences in SCNT and IVF 2-cell embryos.

[2] = tested on: SCNT blastocysts; experiment: ntESC derivation from SCNT blastocysts; assay type: cell-based, mouse; details: for No. of blastocyst attached to feeder cells / No. of established ntESC lines / blastocyst attached to feeder cells (% per blast) / established ntESC lines (% per MII oocyte) / established ntESC lines (% per blast): cumulus donor cells (BDF1, female)
Protocol: Blastocysts were denuded by acid tyrode treatment and cultured on mitomycin treated MEF feeder cells and in DMEM supplemented with 5% FBS, 10% KnockOut serum replacement (Life Technologies #10828-028), 0.1 mM non-essential amino acids, 2 mM GlutaMAX, 50 U/ml penicillin-streptomycin, 0.1 mM 2-mercaptoethanol and 2000 U leukemia inhibitory factor (LIF, Millipore #ESG1107) at 37° C. 5% CO2. Four to five days later, outgrowths from attached embryos were dissociated with 0.25% trypsin and passaged all onto new feeder cells. On the following day, the medium was replaced with N2B27-LIF media [DMEM/F12 (Life Technologies #10565-042) supplemented with 0.1 mM non-essential amino acids, 2 mM GlutaMAX, 50 U/ml penicillin-streptomycin, 0.1 mM 2-mercaptoethanol, 0.5×N2 supplement (Life technologies #17502-048), 0.5× B27 supplement (Life technologies #17504-044), […] CHIR99021 (STEMGENT #04-0004), 0.5 μM PD0325901 (STEMGENT #04-0006) and 1000 U LIF]. Five days later, expanded cells were reseeded as established ntESC.

[3] = tested on: SCNT embryos transferred to pseudopregnant ICR females; experiment: In vivo development of 2-cell SCNT embryos after embryo transfer (caesarian section at E19.5); design: species or system mouse; details: for Body weight at birth (g ± SD) / Placenta weight at birth (g ± SD) / No. of implanted / No. of pups / implanted (% per ET) / pups (% per ET): Kdm4d mRNA 1800 ng/μl
Text: Two-cell stage embryos generated by SCNT or in vitro fertilization were transferred to the oviducts of pseudopregnant (E0.5) ICR females. The pups were recovered by caesarian section on the day of delivery (E19.5) and nursed by lactating ICR females.

[4] = TSA treatment 15 nM for 8 h, water or mRNA 1800 ng/μl injected
[5] = Sertoli donor cells (BDF1, male)
[6] = Sertoli donor cells (BDF1, male), E19.5
[7] = Sertoli donor cells (BDF1, male), E19.5, listed as Kdm4d
[8] = Sertoli donor cells (BDF1, male), E19.5, listed as Kdm4d WT
[9] = cumulus donor cells (BDF1, female)
[10] = cumulus donor cells (BDF1, female), E19.5

“Kdm4d WT mRNA: in vitro transcribed full length mouse Kdm4d mRNA, encoding an H3K9me3-specific histone demethylase” was tested, and the “repression of major satellite repeats in 2-cell SCNT embryos (in words)” value [1] was “completely restored”, the “% of the 222 RRRs activated (FC >2) compared to control SCNT embryos” value ([1]; 2-cell SCNT embryos) was 83% and the “SCNT-induced repression of class III retrotransposon elements such as MERVL (in words)” value ([1]; 2-cell SCNT embryos) was “partly relieved”. For the same substance, the “number of the 222 RRRs activated (FC >2)” value ([1]; 2-cell SCNT embryos) was 184, the “total number of differentially expressed genes (FC >3) between SCNT and IVF 2-cell embryos” value ([1]; 1212 without injection) was 475 and the “efficiency of attachment or ntESC derivation per blastocyst, compared to control (in words)” value ([2]; SCNT blastocysts from cumulus donor cells) was “did not show any significant difference”. For the same substance, the “ntESC derivation efficiency based on the total number of MII oocytes used for SCNT (in words)” value ([2]; cumulus donor cells) was “greatly improved”, the “No. of blastocyst attached to feeder cells” value [2, 4] was 16 and the “No. of established ntESC lines” value [2, 4] was 11. For the same substance, the “blastocyst attached to feeder cells (% per blast)” value [2, 4] was 76.2%, the “established ntESC lines (% per MII oocyte)” value [2, 4] was “(44.0) %” and the “established ntESC lines (% per blast)” value [2, 4] was “(52.3) %”. For the same substance, the “No. of blastocyst attached to feeder cells” value ([2]; no TSA, mRNA 1800 ng/μl) was 13, the “No. of established ntESC lines” value ([2]; no TSA, mRNA 1800 ng/μl) was 10 and the “blastocyst attached to feeder cells (% per blast)” value ([2]; no TSA, mRNA 1800 ng/μl) was 72.2%. The “established ntESC lines (% per MII oocyte)” value ([2]; no TSA, mRNA 1800 ng/μl) was “(50.0) %”, the “established ntESC lines (% per blast)” value ([2]; no TSA, mRNA 1800 ng/μl) was “(55.6) %” and the “Body weight at birth (g ± SD)” value [3, 5] was 1.48 ± 0.11 g. For the same substance, the “Placenta weight at birth (g ± SD)” value [3, 5] was 0.26 ± 0.10 g, the No. of implanted [3, 6] was 59 and the No. of pups [3, 6] was 8. The “implanted (% per ET)” value [3, 7] was 64%, the “pups (% per ET)” value [3, 7] was 8.7% and the “implanted (% per ET)” value [3, 8] was 64.1%. The “pups (% per ET)” value [3, 8] was “(8.7) %”, the “Body weight at birth (g ± SD)” value [3, 9] was 1.60 ± 0.15 g and the “Placenta weight at birth (g ± SD)” value [3, 9] was 0.32 ± 0.03 g. The No. of implanted [3, 10] was 75, the No. of pups [3, 10] was 9 and the “implanted (% per ET)” value [3, 10] was 63.0%. For the same substance, the “pups (% per ET)” value ([3]; cumulus donor cells (BDF1, female), E19.5, listed as Kdm4d) was 7.6%, the “pups (% per ET)” value ([3]; cumulus donor cells (BDF1, female), E19.5, listed as Kdm4d WT) was “(7.6) %” and the “rate of implantation relative to control SCNT embryos” value ([3]; cumulus donor cells, E19.5) was 3 fold. The “growth and fertility of SCNT pups (in words)” value ([3]; mouse, in vivo) was “grew normally to adulthood and generated offspring by natural mating”.
